In PubChem BioAssay (NCI):
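Step 1: Grow cells in 96-well plates. Step 2: Expose to compound for 48 hours at 5 concentrations. Step 3: Interpolate endpoints linearly; if unreached, use highest concentration. The concentration for 50% growth inhibition is given as GI50. Definition used: TGI = concentration required for complete inhibition of growth.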

Tests used:
Test in all cases: NCI tumour cell line growth inhibition, 48 h
[1] = test system: U251 CNS
[2] = test system: NCI-H522 lung
[3] = test system: HOP-62 NSCLC
[4] = test system: OVCAR-8 ovarian
[5] = test system: UO-31 renal
[6] = test system: NCI-H460 lung
[7] = test system: NCI-H23 lung
[8] = test system: 786-0 renal
[9] = test system: MALME-3M melanoma
[10] = test system: OVCAR-5 ovarian
[11] = test system: OVCAR-3 ovarian
[12] = test system: PC-3 prostate
[13] = test system: COLO 205 colon
[14] = test system: IGROV1 ovarian
[15] = test system: SK-OV-3 ovarian
[16] = test system: MDA-MB-231 breast
[17] = test system: DU-145 prostate
[18] = test system: EKVX NSCLC
[19] = test system: MDA-MB-435
[20] = test system: SF-268 CNS
[21] = test system: MCF7 breast
[22] = test system: CCRF-CEM leukemia
[23] = test system: UACC-62 melanoma
[24] = test system: SR leukemia
[25] = test system: SW-620 colon
[26] = test system: HT29 colon
[27] = test system: UACC-257 melanoma
[28] = test system: M14 melanoma
[29] = test system: RPMI-8226 leukemia

COc1cc(Cn2c(C(F)(F)F)cc3c(Cl)ncnc32)ccn1
GI50 [1]: 15 µM | TGI [1]: 28.9 µM | GI50 [2]: 3.28 µM | TGI [2]: 15.3 µM | GI50 [3]: 14.3 µM | TGI [3]: 29.7 µM | GI50 [4]: 11.4 µM | TGI [4]: 26.6 µM | GI50 [5]: 8.66 µM | TGI [5]: 24.1 µM | GI50 [6]: 2.69 µM | TGI [6]: 8.19 µM | GI50 [7]: 2.19 µM | TGI [7]: 4.91 µM | GI50 [8]: 10.6 µM | TGI [8]: 25.9 µM | GI50 [9]: 12.6 µM | TGI [9]: 25.5 µM | GI50 [10]: 16 µM | TGI [10]: 32.4 µM | GI50 [11]: 2.32 µM | TGI [11]: 7.05 µM | GI50 [12]: 5.56 µM | TGI [12]: 20.8 µM | GI50 [13]: 15.3 µM | TGI [13]: 46.3 µM | GI50 [14]: 1.78 µM | TGI [14]: 3.62 µM | GI50 [15]: 17.1 µM | TGI [15]: 32.3 µM | GI50 [16]: 3.33 µM | TGI [16]: 12.6 µM | GI50 [17]: 1.76 µM | TGI [17]: 3.22 µM | GI50 [18]: 7.95 µM | TGI [18]: 23.9 µM | GI50 [19]: 3.26 µM | TGI [19]: 14.6 µM | GI50 [20]: 2.47 µM | TGI [20]: 9.37 µM | GI50 [21]: 5.12 µM | TGI [21]: 19.8 µM | GI50 [22]: 3.14 µM | TGI [22]: 18.6 µM | GI50 [23]: 8.1 µM | TGI [23]: 20.6 µM | GI50 [24]: 3.61 µM | TGI [24]: > 100 µM | GI50 [25]: 3.86 µM | TGI [25]: 16.7 µM | GI50 [26]: 14.1 µM | TGI [26]: 41.3 µM | GI50 [27]: 8.49 µM | TGI [27]: 21.7 µM | GI50 [28]: 1.52 µM | TGI [28]: 4.16 µM | GI50 [29]: 15.4 µM | TGI [29]: 78.6 µM
